Measurements from patent US9980943B2, “Methods of treating muscular dystrophy” (BOARD OF REGENTS OF THE NEVADA SYSTEM OF HIGHER EDUCATION, …, priority 2013, dated 2018).

Experiments:
Type in all cases: cell-based, mouse
[1] = tested on: α7 integrin (LacZ reporter in α7βgal+/− myoblasts); assay: Myoblast α7+/LacZ integrin FDG assay (Burkin assay in myoblasts, 96-well); settings: α7+/LacZ myoblasts, 96-well
[2] = tested on: α7 integrin (LacZ reporter in α7+/LacZ myotubes); assay: Myotube α7 integrin FDG assay (Burkin assay in myotubes, 96-well); settings: myotubes
[3] = tested on: β-galactosidase in CMV-LacZ C2C12 myoblasts; assay: CMV-LacZ secondary screen in C2C12 myoblasts (β-Gal stabilizing assay); settings: CMV-LacZ C2C12 myoblasts
In short: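 β-Gal level was the read-out, measured in a clonal C2C12 line expressing LacZ from a CMV promoter. Dose-response curves used six concentrations, 0.5 μM up to 40 μM, with duplicate points.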

[4] = tested on: β-galactosidase in CMV-LacZ C2C12 myotubes; assay: CMV-LacZ secondary screen in C2C12 myotubes (β-Gal stabilizing assay); settings: C2C12 CMV-LacZ myotubes, fold relative to DMSO
In short: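 CMV-LacZ C2C12 line (clonal, FDG-screened); myoblasts/myotubes dosed 0.5–40 μM (0.5, 1, 5, 10, 20, 40 μM); n=2 per point; β-gal stabilization read-out.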

Compound | Burkin Assay in Myoblasts, signal relative to DMSO ([1]; 0.5 uM) | Burkin Assay in Myoblasts, signal relative to DMSO ([1]; 1 uM) | Burkin Assay in Myoblasts, signal relative to DMSO ([1]; 5 uM) | Burkin Assay in Myoblasts, signal relative to DMSO ([1]; 10 uM) | Burkin Assay in Myoblasts, signal relative to DMSO ([1]; 20 uM) | Burkin Assay in Myoblasts, signal relative to DMSO ([1]; 40 uM) | Burkin Assay in Myotubes, α7 integrin LacZ reporter signal relative to DMSO ([2]; 0.5 uM) | Burkin Assay in Myotubes, α7 integrin LacZ reporter signal relative to DMSO ([2]; 1 uM) | Burkin Assay in Myotubes, α7 integrin LacZ reporter signal relative to DMSO ([2]; 5 uM) | Burkin Assay in Myotubes, α7 integrin LacZ reporter signal relative to DMSO ([2]; 10 uM) | Burkin Assay in Myotubes, α7 integrin LacZ reporter signal relative to DMSO ([2]; 20 uM) | Burkin Assay in Myotubes, α7 integrin LacZ reporter signal relative to DMSO ([2]; 40 uM) | CMV-LACZ in Myoblasts (β-galactosidase activity relative to DMSO) ([3]; 0.5 uM) | CMV-LACZ in Myoblasts (β-galactosidase activity relative to DMSO) ([3]; 1 uM) | CMV-LACZ in Myoblasts (β-galactosidase activity relative to DMSO) ([3]; 5 uM) | CMV-LACZ in Myoblasts (β-galactosidase activity relative to DMSO) ([3]; 10 uM) | CMV-LACZ in Myoblasts (β-galactosidase activity relative to DMSO) ([3]; 20 uM) | CMV-LACZ in Myoblasts (β-galactosidase activity relative to DMSO) ([3]; 40 uM) | CMV-LACZ in Myotubes, signal relative to DMSO ([4]; 0.5 uM) | CMV-LACZ in Myotubes, signal relative to DMSO ([4]; 1 uM) | further results
O=C(NCCc1ccc(Cl)cc1)C1CCCO1 (stereo not drawn) [MLS001198271-01] | 1.034 | 1 | 1.292 | 1.034 | 1.088 | 1.0038 | 1.0083 | 0.9334 | 1.113 | 0.9856 | 0.9056 | 0.8217 | 1.0204 | 1.0883 | 1.2105 | 0.8516 | 0.9944 | 1.2089 | 0.9933 | 1.0686 | CMV-LACZ in Myotubes, signal relative to DMSO ([4]; 5 uM): 0.9907; CMV-LACZ in Myotubes, signal relative to DMSO ([4]; 10 uM): 0.9957; CMV-LACZ in Myotubes, signal relative to DMSO ([4]; 20 uM): 1.1053; CMV-LACZ in Myotubes, signal relative to DMSO ([4]; 40 uM): 1.0053
Cc1[nH]c(=O)[nH]c(=O)c1S(=O)(=O)Nc1ccc(F)cc1Cl [MLS001200149-01] | 1.039 | 1.156 | 1.0782 | 0.998 | 1.021 | 0.9876 | 1.26 | 1.072 | 1.069 | 1.094 | 0.9286 | 0.8363 | 1.1234 | 0.9203 | 0.9489 | 1.0523 | 0.9363 | 1.1552 | 0.8378 | 0.9933 | CMV-LACZ in Myotubes, signal relative to DMSO ([4]; 5 uM): 0.9974; CMV-LACZ in Myotubes, signal relative to DMSO ([4]; 10 uM): 0.8176; CMV-LACZ in Myotubes, signal relative to DMSO ([4]; 20 uM): 0.8318; CMV-LACZ in Myotubes, signal relative to DMSO ([4]; 40 uM): 0.9424
CC(=O)Nc1ccc(NC(=O)c2cc(=O)c3cc(C)cc(C)c3o2)cc1 [MLS001200396-01] | 0.8827 | 0.9245 | 0.5378 | 1.1321 | 0.4827 | 0.4794 | 0.9301 | 0.9487 | 0.9829 | 1.264 | 0.6408 | 0.7114 | 1.0489 | 0.9157 | 1.0212 | 1.2107 | 0.7252 | 0.9011 | 0.9137 | 0.8442 | CMV-LACZ in Myotubes, signal relative to DMSO ([4]; 5 uM): 0.8987; CMV-LACZ in Myotubes, signal relative to DMSO ([4]; 10 uM): 0.7738; CMV-LACZ in Myotubes, signal relative to DMSO ([4]; 20 uM): 0.9644; CMV-LACZ in Myotubes, signal relative to DMSO ([4]; 40 uM): 0.9733
